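Protocol summary: plate cells (96-well), add compound at 5 concentrations, incubate 48 h, interpolate endpoints linearly. GI50 is the concentration that inhibits growth by half.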 The source made the active and inactive calls. Cut-off read from the data, not from the text of the source: active = GI50 up to about 1.1 µM and inactive = higher.
Experiments:
Assay in all cases: NCI anticancer screen, dose series, 48 h
HOP-92 = tested on: HOP-92
CCRF-CEM = tested on: CCRF-CEM
SK-OV-3 = tested on: SK-OV-3
SK-MEL-2 = tested on: SK-MEL-2
U-251 = tested on: U-251
K562 = tested on: K562
LOX IMVI = tested on: LOX IMVI
SF-268 = tested on: SF-268
M14 = tested on: M14
RXF 393 = tested on: RXF 393
SK-MEL-5 = tested on: SK-MEL-5
786-0 = tested on: 786-0
IGROV-1 = tested on: IGROV-1
SK-MEL-28 = tested on: SK-MEL-28
NCI-H460 = tested on: NCI-H460
SR = tested on: SR
HT-29 = tested on: HT-29
KM12 = tested on: KM12

Measured: GI50

COc1ccc2c(=O)c([Se]c3coc4cc(OC)ccc4c3=O)coc2c1
inactive: HOP-92 > 100 µM | CCRF-CEM 46.7 µM | SK-OV-3 > 100 µM | SK-MEL-2 > 100 µM | U-251 42.8 µM | K562 > 100 µM | LOX IMVI > 100 µM | SF-268 > 100 µM | M14 18.3 µM | RXF 393 48.6 µM | SK-MEL-5 > 100 µM | 786-0 44.5 µM | IGROV-1 34.4 µM | SK-MEL-28 52.1 µM | NCI-H460 18.7 µM | SR 44.1 µM | HT-29 > 100 µM | KM12 41.1 µM

O=C(Nc1ccc(Sc2ccc(/N=N/c3c(O)c(S(=O)(=O)O)cc4cc(S(=O)(=O)O)ccc34)cc2)cc1)c1ccc(/N=N/c2c(O)ccc3c(S(=O)(=O)O)cc(S(=O)(=O)O)cc23)cc1
inactive: HOP-92 78 µM | CCRF-CEM 24.7 µM | SK-OV-3 > 100 µM | SK-MEL-2 27.9 µM | U-251 41.2 µM | K562 10.1 µM | LOX IMVI 15.5 µM | SF-268 41 µM | M14 21.7 µM | RXF 393 50.6 µM | SK-MEL-5 7.5 µM | 786-0 37.6 µM | IGROV-1 32.7 µM | SK-MEL-28 48.1 µM | NCI-H460 28.1 µM | SR 21.6 µM | HT-29 42.1 µM | KM12 39.9 µM

CCCCOP1(=O)CC(C)=C(Cl)C(C)(OC)C1 (configuration not stated)
inactive: HOP-92 43.7 µM | CCRF-CEM 28.4 µM | SK-OV-3 > 100 µM | SK-MEL-2 41 µM | U-251 > 100 µM | K562 29.6 µM | LOX IMVI > 100 µM | SF-268 > 100 µM | M14 > 100 µM | RXF 393 > 100 µM | SK-MEL-5 > 100 µM | 786-0 > 100 µM | IGROV-1 > 100 µM | SK-MEL-28 > 100 µM | NCI-H460 > 100 µM | SR 31.8 µM | HT-29 > 100 µM | KM12 > 100 µM

COc1ccc(CN(O)C2C(CO)OC(n3cc(I)c(=O)[nH]c3=O)C2O)cc1 (configuration not stated)
inactive: HOP-92 > 100 µM | CCRF-CEM > 100 µM | SK-OV-3 > 100 µM | SK-MEL-2 > 100 µM | U-251 > 100 µM | K562 > 100 µM | LOX IMVI > 100 µM | SF-268 > 100 µM | M14 > 100 µM | RXF 393 > 100 µM | SK-MEL-5 > 100 µM | 786-0 > 100 µM | IGROV-1 > 100 µM | SK-MEL-28 > 100 µM | NCI-H460 > 100 µM | SR > 100 µM | HT-29 > 100 µM | KM12 > 100 µM
